Entries after “also recorded” stand apart in the source; their conditions may differ.
Experiments:
[1] = system: Philippines 82/H3N2 (Phil82) influenza A virus; type: cell-based
[2] = system: IAV; assay: Viral aggregation by light absorbance at 350 nm; design: species or system influenza A virus; settings: for Aggregation of IAV particles (light transmission at 350nm): dilute suspension of IAV, Fig 2A and 2B (8 and 16μg/ml)
[3] = system: IAV; assay: Viral aggregation by electron microscopy; design: species or system influenza A virus; settings: 2 or 8μg/ml of peptide; LPS control 10 EU/ml; representative of 3 experiments; Fig 2C
[4] = system: IAV; assay: Confocal microscopy of Alexa Fluor 594 labeled IAV on MDCK cells; type: cell-based, influenza A virus; settings: Alexa Fluor 594 labeled IAV pre-incubated with peptide 30 minutes at 37°C, then MDCK cells 45 min; 3 experiments; Fig 3
[5] = system: human neutrophils; assay: IAV uptake by neutrophils (flow cytometry); type: cell-based; settings: FITC-IAV (Phil82) treated with peptide 30 min at 37°C, then neutrophils 45 minutes at 37°C, trypan blue quench, 5 experiments, separate donors
[6] = system: human neutrophils; type: cell-based; settings: compared to IAV alone, 5 experiments
[7] = system: Escherichia coli (E.coli); assay: Aggregation of rhodamine labeled E.coli (fluorescent microscopy); settings: rhodamine E. coli preincubated with 50ug/ml peptide for 1 hour at 37°C, fluorescent microscope; three experiments; Fig 6
[8] = system: human neutrophils; assay: Neutrophil uptake of rhodamine labeled E.coli; type: cell-based; settings: for Neutrophil uptake of E.coli: rhodamine labeled E.coli pre-incubated with peptide, flow cytometry, 5 experiments, separate donors, Fig 7
[9] = design: method as in PMID 24449257; settings: simulation kinetics and energetics, compared with βA 35–40 and βA37-42; cited from earlier work

Sequence	Inhibition of IAV infectivity (neutralization) [1]	Aggregation of IAV (light transmission at 350nm), 16μg/ml ([2]; 16μg/ml of βA peptides, Fig 2B)	Aggregation of IAV particles (light transmission at 350nm) [2]	Aggregation of IAV particles (light transmission at 350nm) ([2]; listed as 22–42)	Viral aggregation by electron microscopy [3]	Viral aggregates visible by confocal microscopy [4]	Neutrophil uptake of IAV ([5]; Fig 4)	Neutrophil uptake of IAV ([5]; Fig 4, listed as 22–42)	Neutrophil H2O2 formation in response to IAV, 16μg/ml ([6]; IAV pre-incubated with 16μg/ml peptide, Fig 5A)	Aggregation of fluorescent E.coli [7]	Neutrophil uptake of E.coli [8]	Neutrophil H2O2 production in response to IAV ([6]; IAV pre-incubated with peptide, Fig 5B)	Neutrophil uptake of E.coli, 32μg/ml ([8]; 32μg/ml peptide, Fig 7A)	Propensity to assemble into unorganized oligomers [9]
EDVGSNKGAIIGLMVGGVVIA [βA22-42, βA fragment of residues 22-42, obtained from Genscript]	significantly inhibited infectivity	statistically significant aggregation	highest activity in this assay	caused aggregation of IAV particles	marked viral aggregation	Aggregates were visible; also recorded: Aggregates were apparent	greater increases than βA1-42	had the ability to increase viral uptake	increased H2O2 formation as compared to IAV alone	caused aggregation	marked increase in uptake			
MVGGVVIA [βA35-42, 8 amino acid βA fragment of residues 35-42, obtained from Genscript]	significantly inhibited infectivity		caused aggregation of IAV particles				increased uptake at the highest concentration tested					did not increase H2O2 production	some increase in E.coli uptake	increased propensity
EDVGSNKGAIIGLMVGGVV [βA22-40, βA fragment of residues 22-40, obtained from Genscript]	no or minimal antiviral activity				did not	not	lacked activity			did not	slight but significantly increased uptake at the highest concentration tested			
GLMVGGVV [βA33-40, βA fragment of residues 33-40, obtained from Genscript]	no or minimal antiviral activity						lacked activity				No significant effects			

From publication PMC5856391, “Critical role of C-terminal residues of the Alzheimer's associated β-amyloid protein in mediating antiviral activity and modulating viral and bacterial interactions with neutrophils” (PLoS ONE, 2018)
